This is an account of results in ChEMBL document CHEMBL1157133, “Design, synthesis, and interaction study of quinazoline-2(1H)-thione derivatives as novel potential Bcl-xL inhibitors” (J Med Chem, 2010).

Activity calls are given as the source filed them. The rule behind the calls is not given here. A value given as a limit tells only on which side of the number the result lay.

Assay [1] addresses T1, Bcl-2-like protein 1 (Homo sapiens, UniProt Q07817). As to the kind of experiment: Inhibition of human Bcl-XL.
Assay [2] addresses T1, Bcl-2-like protein 1. As to the kind of experiment: Displacement of FITC-labeled BH3 peptide from human Bcl-XL after 1 hr by fluorescence polarization assay. A general note: Polarisation of emitted light reports the rotation of a fluorescent probe.
Assay [3] has as its target Induced myeloid leukemia cell differentiation protein Mcl-1 homolog (Mus musculus, UniProt P97287). The experiment in a line: Displacement of FITC-labeled BH3 peptide from GST-tagged mouse Mcl1 after 1 hr by fluorescence polarization assay.
Assay [4] concerns the target Apoptosis regulator Bcl-2 (Homo sapiens, UniProt P10415). The experiment in a line: Displacement of FITC labeled BH3 peptide from His-tagged human BCL2 after 1 hr by fluorescence polarization assay.
The target in assay [5] is Bcl-2-like protein 1 (Homo sapiens, UniProt Q07817, Y101A). The experiment in a line: Binding affinity to human Bcl-XL Y101A mutant by surface plasma resonance based biosensor system.
The test system of another assay is OVCAR-3. The experiment in a line: Cytotoxicity against human OVCAR-3 cells after 48 hrs by MTT assay. Conditions: OVCAR-3, 48 h. Background: Tetrazolium assays rely on reduction of a dye to a coloured formazan, in cell work by metabolically active cells.
Assay [6] can be described thus: Cytotoxicity against human Bel7404 cells after 48 hrs by MTT assay. Conditions: BEL-7404, 48 h.
A further assay relates to PC-3. As to the kind of experiment: Cytotoxicity against human PC3 cells after 48 hrs by MTT assay. In kind it is functional, cell-based. The following applies: for EC50: PC-3, 48 h.
The test system of another assay is A2780. The experiment in a line: cells. Conditions: Homo sapiens, A2780, 48 h.
The test system of another assay is HepG2. The experiment in a line: cells. Conditions: Homo sapiens, HepG2, 48 h.
In assay [7] the test system is K562. As to the kind of experiment: cells. The following applies: Homo sapiens, K562, 48 h.
Description: Cytotoxicity against human K562 cells after 48 hrs by MTT assay
Assay [8] has as its target T1, Bcl-2-like protein 1. The experiment in a line: Binding affinity to human Bcl-XL by surface plasma resonance based biosensor system.
The target of assay [9] is Bcl-2-like protein 1 (Homo sapiens, UniProt Q07817, E96A). As to the kind of experiment: Binding affinity to human Bcl-XL E96A mutant by surface plasma resonance based biosensor system.
The target of assay [10] is Bcl-2-like protein 1 (Homo sapiens, UniProt Q07817, Y195A). The experiment in a line: Binding affinity to human Bcl-XL Y195A mutant by surface plasma resonance based biosensor system.
The subject of assay [11] is K562. The experiment in a line: Induction of apoptosis in human K562 cells assessed as chromatin condensation. In kind it is functional, cell-based.
In assay [12] the test system is K562. The experiment in a line: Induction of apoptosis in human K562 cells assessed activation of caspase3 at 25 uM after 48 hrs by immunoblotting. Type of assay: functional, cell-based. Background: A western blot detects proteins with antibodies after separation by electrophoresis.
Assay [13] has as its system K562. As to the kind of experiment: Induction of apoptosis in human K562 cells assessed activation of caspase9 at 25 uM after 48 hrs by immunoblotting. Type of assay: functional, cell-based.
In assay [14] the test system is K562. The experiment in a line: Induction of apoptosis in human K562 cells assessed as increase of reactive oxygen species level at 25 uM after 48 hrs using DCFH-DA fluorescent dye relative to control. In kind it is functional.
Assay [15] deals with K562. As to the kind of experiment: Induction of apoptosis in human K562 cells assessed reduction of mitochondrial membrane potential after 24 hrs using JC1 fluorescent dye.

Bcl-2-like protein 1 (Homo sapiens, UniProt Q07817, Y101A), sequence (Q07817 whole entry Y101A): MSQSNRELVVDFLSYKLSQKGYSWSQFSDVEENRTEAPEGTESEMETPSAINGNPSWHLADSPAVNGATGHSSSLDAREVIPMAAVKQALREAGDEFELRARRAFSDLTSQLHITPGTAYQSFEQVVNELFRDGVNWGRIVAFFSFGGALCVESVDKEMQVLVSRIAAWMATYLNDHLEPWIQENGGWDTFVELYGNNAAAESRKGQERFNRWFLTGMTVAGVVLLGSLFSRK
Induced myeloid leukemia cell differentiation protein Mcl-1 homolog, sequence (P97287 whole entry): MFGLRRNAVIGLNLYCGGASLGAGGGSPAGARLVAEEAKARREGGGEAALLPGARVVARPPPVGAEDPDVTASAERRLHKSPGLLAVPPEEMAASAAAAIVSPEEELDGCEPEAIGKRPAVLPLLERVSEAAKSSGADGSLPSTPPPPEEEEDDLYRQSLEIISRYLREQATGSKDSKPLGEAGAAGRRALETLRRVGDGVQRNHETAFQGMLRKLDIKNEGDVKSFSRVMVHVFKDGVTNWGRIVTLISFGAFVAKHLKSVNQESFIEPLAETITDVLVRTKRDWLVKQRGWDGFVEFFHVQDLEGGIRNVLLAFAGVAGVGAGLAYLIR
T1 sequence (Q07817 whole entry): as the sequence (Q07817 whole entry Y101A) above, with A101Y counted along it
Apoptosis regulator Bcl-2, sequence (P10415 whole entry): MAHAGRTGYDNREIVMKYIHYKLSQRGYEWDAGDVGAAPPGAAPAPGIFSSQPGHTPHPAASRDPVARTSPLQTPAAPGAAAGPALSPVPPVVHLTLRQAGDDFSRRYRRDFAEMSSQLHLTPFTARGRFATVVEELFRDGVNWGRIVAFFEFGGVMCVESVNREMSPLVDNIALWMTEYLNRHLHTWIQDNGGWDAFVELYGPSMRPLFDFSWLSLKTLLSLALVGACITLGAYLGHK
Bcl-2-like protein 1 (Homo sapiens, UniProt Q07817, Y195A), sequence (Q07817 whole entry Y195A): as the sequence (Q07817 whole entry Y101A) above, with A101Y, Y195A counted along it
Bcl-2-like protein 1 (Homo sapiens, UniProt Q07817, E96A), sequence (Q07817 whole entry E96A): as the sequence (Q07817 whole entry Y101A) above, with E96A, A101Y counted along it
Description for A2780: Cytotoxicity against human A2780 cells after 48 hrs by MTT assay
Description for HepG2: Cytotoxicity against human HepG2 cells after 48 hrs by MTT assay

With `COc1ccc(C2C3=C(N=c4s/c(=C\c5ccc(-c6cccc(C(=O)O)c6)o5)c(=O)n42)c2ccccc2CC3)cc1` (stereo not given), the IC50 (as a rule, the midpoint of a concentration-inhibition curve) on Bcl-2-like protein 1 [1] turned out to be 6.9 µM; on Bcl-2-like protein 1 [2], 6.9 µM; in assay [3], 18.6 µM; in assay [4] it was 8 µM. For the same compound, the Kd – broadly, the free concentration of one partner at which half of the binding sites on the other are occupied at equilibrium, for simple one-to-one binding – at Bcl-2-like protein 1 [5] was above 1000 µM. The concentration giving a half-maximal response (EC50) (as a rule, the concentration giving half of the maximal effect) in the assay with OVCAR-3 is 7.21 µM; in [6] it was 24.7 µM; with PC-3, 12 µM; in the assay on A2780 it was 13.1 µM; in the assay on HepG2 it was above 100 µM; with K562 [7], 72.3 µM. Also, the Activity result in the assay on PC-3 is “Dose-dependent effect”.
For the compound `COc1cccc(C2C3=C(N=c4s/c(=C\c5ccc(-c6cccc(C(=O)O)c6)o5)c(=O)n42)c2ccccc2CC3)c1` (stereo not given), the 50% inhibitory concentration (IC50) on Bcl-2-like protein 1 [1] was 7.3 µM; at Bcl-2-like protein 1 [2] it was 7.3 µM; in assay [3] it was 19.2 µM; in [4] it was 11.1 µM. In addition, the concentration giving a half-maximal response (EC50) in the assay with OVCAR-3 is 7.91 µM; in assay [6], above 100 µM; with PC-3, 29.5 µM; in the assay with A2780, 13.8 µM; in the assay on HepG2, above 100 µM; in the assay with K562 [7], above 100 µM. Also, in the assay on PC-3, the Activity entry is “Dose-dependent effect”.
Take `COc1ccccc1C1C2=C(N=c3s/c(=C\c4cccc(OCC(=O)O)c4)c(=O)n31)c1ccccc1CC2` (stereo not given): the IC50 against Bcl-2-like protein 1 [1] stood at 3.4 µM; at Bcl-2-like protein 1 [2], 3.4 µM; in assay [3], 6.4 µM; in assay [4], 3.1 µM. The dissociation constant Kd at Bcl-2-like protein 1 [8] is 9.5 µM; at Bcl-2-like protein 1 [9] it was 34.8 µM; on Bcl-2-like protein 1 [5] it was 6.94 µM; on Bcl-2-like protein 1 [10], 904 µM. Moreover, the EC50 in the assay on OVCAR-3 was 1.54 µM; in assay [6], 7.9 µM; with PC-3, 37.6 µM; in the assay with A2780, 4.57 µM; in the assay on HepG2, 12.7 µM; in the assay with K562 [7] it was 50.9 µM. The Activity result in the assay on PC-3 and with K562 [15] was “Dose-dependent effect” each time. In addition, the outcome in the assay with K562 [11], with K562 [12] and with K562 [13] was Active. The “fold change (FC)” value with K562 [14] is given as 2.7.
With `COc1ccc(C2C3=C(N=c4s/c(=C\c5ccc(OCc6cccc(C(=O)O)c6)c(OC)c5)c(=O)n42)c2ccccc2CC3)cc1` (stereo not given), the IC50 at Bcl-2-like protein 1 [1] was 17.4 µM; on Bcl-2-like protein 1 [2] it was 17.4 µM; in assay [3] it was 34.4 µM; in assay [4], 19.4 µM. Besides, the Kd on Bcl-2-like protein 1 [5] was above 1000 µM. Besides, the EC50 in the assay with OVCAR-3 was 11.7 µM; in [6], 7.2 µM; in the assay on PC-3 it was above 100 µM; in the assay with A2780 it was 3.03 µM; in the assay on HepG2, 9.9 µM; with K562 [7], 6.42 µM. Besides, the Activity result with PC-3 is “Dose-dependent effect”.
